Like-named read-outs stand apart in the source and are kept apart here.
What was measured:
Puccinia recondita = test: Effect on Wheat brown rust (preventive spray test); format: in vivo; details: 7 days after inoculation
Botrytis cinerea = test: Effect on Cucumber gray mold (cotyledon paper disc test); format: in vivo; details: 3 days after inoculation
Erysiphe graminis = test: Effects on Barley powdery mildew (preventive spray test); format: in vivo; details: lesions counted seven days after inoculation
[1] = system: Psecidoperonospora cubensis; test: Effect on Cucumber downy mildew (preventive spray test); format: in vivo; details: 7 days after inoculation
Pyricularia oryzae = format: in vivo; details: Rice blast, 7 days after inoculation
Rhizoctonia solani = test: Effect on Rice sheath blight (preventive spray test); details: 10 days after inoculation
Description: An emulsion of a compound of the present invention prepared in Preparation Example 2 was diluted with water and uniformly sprayed on 5 rice plant seedlings (variety: Koshihikari) in 4.5-leaf stage in each plastic pot having a diameter of 6 cm, with a spray gun. One day after the spraying, the seedlings were bundled at the second sheath with a string. Colonies of Rhizoctonia solani previously cultured in PSA culture medium were bored with a cork borer to obtain pieces having a diameter of 4 mm. The piece was put in the bundle, and kept in a high-humidity room at 25° C. until the examination. Ten days after the inoculation, the degree of the disease was examined, and the preventive rate (effect of inhibiting the disease) was calculated on the basis of the following standard:
Preventive rate=[1-D′/C′]×100
C′: Severity in untreated section
D′: Severity in treated section.

Phytophthora infestans = format: in vivo; details: Tomato late blight, 5 days after inoculation
Chochliobolus miyabeanus = test: Effect on Rice brown spot (preventive spray test); format: in vivo; details: 7 days after inoculation
[2] = conc. of active ingredient 20 ppm
[3] = conc. of active ingredient 100 ppm
[4] = conc. of active ingredient 4 ppm

| SMILES | Preventive rate (%) (Puccinia recondita; [2]) | Preventive rate (%) (Puccinia recondita; [3]) | Preventive rate (%) (Botrytis cinerea; [2]) | Preventive rate (%) (Botrytis cinerea; [3]) | Preventive rate (%) (Erysiphe graminis; [2]) | Preventive rate (%) (Erysiphe graminis; [3]) | Preventive rate (%) (Puccinia recondita; [4]) | Preventive rate (%) [1, 4] | Preventive rate (%) [1, 2] | Preventive rate (%) [1, 3] | Preventive rate (%) (Pyricularia oryzae; [2]) | Preventive rate (%) (Pyricularia oryzae; [3]) | Preventive rate (%) (Erysiphe graminis; [4]) | Preventive rate (%) (Phytophthora infestans; [2]) | Preventive rate (%) (Phytophthora infestans; [3]) | other results |
| --- | --- | --- | --- | --- | --- | --- | --- | --- | --- | --- | --- | --- | --- | --- | --- | --- |
| CNC(=O)C(OC)c1ccccc1COc1ccc2c(c1)OCC2=NOC (racemic) [a-11] | 88% | 100% | 40% | 87% | 88% | 100% | – | – | – | – | – | – | – | – | – | – |
| CNC(=O)C(=NOC)c1ccccc1COc1ccc2c(c1C)OC(C)CC2=NOC (racemic) [d-11] | 100% | 100% | – | – | 99% | 99% | 100% | 93% | 96% | 100% | 78% | 95% | – | – | – | Preventive rate (%) (Pyricularia oryzae; [4]): 68%; Preventive rate (%) (Rhizoctonia solani; [2]): 75%; Preventive rate (%) (Rhizoctonia solani; [3]): 96% |
| COC=C(C(=O)OC)c1ccccc1COc1ccc2c(c1C)C(C)CC2=NOC (racemic) [f-5] | 100% | 100% | – | – | 100% | 100% | 100% | 99% | 100% | 100% | 89% | 94% | 97% | 100% | 100% | Preventive rate (%) (Pyricularia oryzae; [4]): 72%; Preventive rate (%) (Phytophthora infestans; [4]): 92%; Preventive rate (%) (Chochliobolus miyabeanus; [4]): 53%; Preventive rate (%) (Chochliobolus miyabeanus; [2]): 94%; Preventive rate (%) (Chochliobolus miyabeanus; [3]): 98% |
| COC=C(C(=O)OC)c1ccccc1COc1ccc2c(c1)OCC2=NOC [a-2] | 100% | 100% | – | – | 79% | 100% | 98% | – | 100% | 100% | 95% | 97% | – | 97% | 100% | Preventive rate (%) (Phytophthora infestans; [4]): 97%; Preventive rate (%) (Chochliobolus miyabeanus; [2]): 93%; Preventive rate (%) (Chochliobolus miyabeanus; [3]): 96% |
| CON=C1COc2c1ccc(OCc1ccccc1/C(=N\OC)C(=O)OC)c2C [a-15] | 96% | 100% | 73% | 96% | – | – | 96% | – | – | – | – | – | – | 81% | 94% | – |
| CON=C1COc2cc(OCc3ccccc3/C(=N\OC)C(=O)OC)c(C)cc21 [a-26] | 100% | 100% | 72% | 87% | – | – | 100% | – | 100% | 100% | – | – | – | 81% | 100% | – |
| CCON=C1COc2c1ccc(OCc1ccccc1/C(=N\OC)C(=O)OC)c2C [a-35] | – | – | – | – | 100% | 100% | – | – | – | – | – | – | 98% | – | – | Preventive rate (%) (Rhizoctonia solani; [2]): 80%; Preventive rate (%) (Rhizoctonia solani; [3]): 84% |
| CNC(=O)/C(=N/OC)c1ccccc1COc1ccc2c(c1)OCC2=NOC(C)C [a-40] | 97% | 100% | 100% | 100% | – | – | – | – | 97% | 100% | – | – | – | – | – | – |
| CCCON=C1COc2c1ccc(OCc1ccccc1/C(=N\OC)C(=O)NC)c2C [a-42] | 100% | 100% | – | – | 88% | 100% | 100% | 100% | 100% | 100% | 90% | 98% | – | 98% | 98% | Preventive rate (%) (Chochliobolus miyabeanus; [2]): 85%; Preventive rate (%) (Chochliobolus miyabeanus; [3]): 91% |
| CNC(=O)/C(=N/OC)c1ccccc1COc1ccc2c(c1)OCC2=NOC/C=C/Cl [a-63] | – | – | 100% | 100% | 100% | 100% | – | – | 100% | 100% | – | – | 99% | – | – | – |
| C#CCON=C1COc2c1ccc(OCc1ccccc1/C(=N\OC)C(=O)NC)c2C [a-71] | 100% | 100% | 100% | 100% | 100% | 100% | 100% | 100% | 100% | 100% | 89% | 91% | – | – | – | – |
| CON=C(C(=O)OC)c1ccccc1COc1ccc2c(c1C)OCCC2=NOC [c-15] | 100% | 100% | 75% | 77% | 100% | 100% | – | 81% | 100% | 100% | 80% | 100% | 100% | 94% | 100% | Preventive rate (%) (Phytophthora infestans; [4]): 84%; Preventive rate (%) (Chochliobolus miyabeanus; [2]): 97%; Preventive rate (%) (Chochliobolus miyabeanus; [3]): 100% |
| CNC(=O)C(=NOC)c1ccccc1COc1ccc2c(c1C)OCCC2=NOC [c-16] | 100% | 100% | 49% | 60% | 100% | 100% | – | – | – | – | 91% | 100% | – | 100% | 100% | Preventive rate (%) (Phytophthora infestans; [4]): 84% |
| CCc1c(OCc2ccccc2C(=NOC)C(=O)NC)ccc2c1OCCC2=NOC [c-30] | 100% | 100% | – | – | 100% | 100% | 100% | – | – | – | 100% | 100% | 95% | – | – | Preventive rate (%) (Rhizoctonia solani; [2]): 56%; Preventive rate (%) (Rhizoctonia solani; [3]): 98% |
| CNC(=O)C(=NOC)c1ccccc1COc1ccc2c(c1C)OCCC2=NOCc1c(F)c(F)c(F)c(F)c1F [c-83] | 100% | 100% | – | – | 96% | 100% | 95% | – | – | – | – | – | – | – | – | Preventive rate (%) (Rhizoctonia solani; [2]): 79%; Preventive rate (%) (Rhizoctonia solani; [3]): 81% |
